The values that follow come from ChEMBL document CHEMBL6083182, “Development of Peptide Paratope Mimics Derived from the Anti-ROR1 Antibody and Long-Acting Peptide-Drug Conjugates for Targeted Cancer Therapy” (J Med Chem, 2024).

Data set [1] can be described thus: Toxicity in BALB/c nude mouse xenografted in human MDA-MB-231 cells assessed as increase in ALT level at 5 mg/kg, iv administered once every 3 days for 27 days starting from day 3. In kind it is organism-based. Particulars: in vivo, 576 h, time 24 day.
A short description of data set [2]: Toxicity in BALB/c nude mouse xenografted with human MDA-MB-231 cells assessed as appearance of apoptotic/necrotic cells in liver at 5 mg/kg, iv administered once every 3 days for 27 days starting from day 3 by H and E staining based analysis. In kind it is organism-based. Particulars: in vivo, 576 h, time 24 day.
Another data set has as its system SK-HEP1. The experiment in a line: Cytotoxicity against human SK-HEP1 cells assessed as decrease in cell viability incubated for 24 hrs by CCK-8 assay. Particulars: SK-HEP1, 24 h. In kind it is functional, cell-based.
Data set [3] relates to MDA-MB-231. The data set can be described thus: Induction of apoptosis in human MDA-MB-231 cells assessed as late apoptotic cells at 16 nM incubated for 24 hrs by AnnexinV-FITC/PI staining based flow cytometry (reference value: 0.034%). In kind it is functional.
For data set [4], the system named is MDA-MB-231. The data set can be described thus: Antitumor activity against human MDA-MB-231 cells xenografted in BALB/c nude mouse assessed as tumor growth inhibition at 5 mg/kg, iv administered once every 3 days for 27 days starting from day 3. In kind it is functional, organism-based. Particulars: time 24.0 day.
Data set [5] is described as follows: Toxicity in BALB/c nude mouse xenografted in human MDA-MB-231 cells assessed as increase in ALP level at 5 mg/kg, iv administered once every 3 days for 27 days starting from day 3. In kind it is organism-based. Particulars: in vivo, 576 h, time 24 day.
A short description of data set [6]: Cytotoxicity against human MCF-10A cells assessed as decrease in cell viability incubated for 24 hrs by CCK-8 assay. The format is toxicity, cell-based.
Data set [7] in a line: Toxicity in BALB/c nude mouse xenografted with human MDA-MB-231 cells assessed as appearance of apoptotic/necrotic cells in lungs at 5 mg/kg, iv administered once every 3 days for 27 days starting from day 3 by H and E staining based analysis. In kind it is organism-based. Particulars: in vivo, 576 h, time 24 day.
Data set [8] in a line: Toxicity in BALB/c nude mouse xenografted with human MDA-MB-231 cells assessed as appearance of apoptotic/necrotic cells in kidney at 5 mg/kg, iv administered once every 3 days for 27 days starting from day 3 by H and E staining based analysis. In kind it is organism-based. To be noted: in vivo, 576 h, time 24 day.
Data set [9] concerns MDA-MB-231. The data set can be described thus: Induction of apoptosis in human MDA-MB-231 cells at 10 uM incubated for 24 hrs by Annexin V-FITC/PI staining based flow cytometric analysis. The format is functional, cell-based.
A short description of data set [10]: Drug uptake in ROR1-positive human MDA-MB-231 cells assessed as increase in fluorescence intensity incubated for 0.25 to 2 hrs by Hoechst 33342 staining based confocal fluorescence microscopic analysis. The format is ADME, cell-based. To be noted: time 0.25-2 hrs.
Data set [11] can be described thus: Toxicity in BALB/c nude mouse xenografted with human MDA-MB-231 cells assessed as body weight loss at 5 mg/kg, iv administered once every 3 days for 27 days starting from day 3. In kind it is organism-based. Particulars: in vivo, 576 h, time 24 day.
A short description of data set [12]: Toxicity in BALB/c nude mouse xenografted in human MDA-MB-231 cells assessed as increase in AST level at 5 mg/kg, iv administered once every 3 days for 27 days. To be noted: in vivo, 576 h, time 24 day. In kind it is organism-based.
For data set [13], the system named is MDA-MB-231. The experiment in a line: Antitumor activity against human MDA-MB-231 cells xenografted in BALB/c nude mouse assessed as reduction in tumor volume at 5 mg/kg, iv measured after first injection starting from day 3 on day 6. To be noted: time 3.0 day. The format is functional, organism-based.
Data set [14] can be described thus: Toxicity in BALB/c nude mouse xenografted in human MDA-MB-231 cells assessed as increase in urea level at 5 mg/kg, iv administered once every 3 days for 27 days starting from day 3. In kind it is organism-based. Particulars: in vivo, 576 h, time 24 day.
Data set [15] concerns MDA-MB-231. The data set can be described thus: Induction of apoptosis in human MDA-MB-231 cells assessed as viable cells at 16 nM incubated for 24 hrs by AnnexinV-FITC/PI staining based flow cytometry (reference value: 99.9%). In kind it is functional. Particulars: read-out: Activity.
Data set [16] has as its system MDA-MB-231. The experiment in a line: Induction of apoptosis in human MDA-MB-231 cells assessed as early apoptotic cells at 16 nM incubated for 24 hrs by AnnexinV-FITC/PI staining based flow cytometry (reference value: 0%). The format is functional.
The subject of data set [17] is MDA-MB-231. The data set can be described thus: Cytotoxicity against ROR1-positive human MDA-MB-231 cells assessed as decrease in cell viability incubated for 24 hrs by CCK-8 assay. In kind it is functional, cell-based. To be noted: MDA-MB-231, 24 h.
Data set [18] can be described thus: Toxicity in BALB/c nude mouse xenografted with human MDA-MB-231 cells assessed as appearance of apoptotic/necrotic cells in heart at 5 mg/kg, iv administered once every 3 days for 27 days starting from day 3 by H and E staining based analysis. The format is organism-based. Particulars: in vivo, 576 h, time 24 day.
Data set [19] has as its system MDA-MB-231. The data set can be described thus: Induction of apoptosis in human MDA-MB-231 cells assessed as necrotic cells at 16 nM incubated for 24 hrs by AnnexinV-FITC/PI staining based flow cytometry (reference value: 0.034%). The format is functional.

SMILES strings stand for the structures. The source made the active and inactive calls. The calls are words filed in the database; no cut-off is given here.

With `COc1cccc2c1C(=O)c1c(O)c3c(c(O)c1C2=O)C[C@@](O)(C(=O)CO)C[C@@H]3O[C@H]1C[C@H](N)[C@H](O)[C@H](C)O1` [DOXORUBICIN], the Activity entry in data set [1] is “Toxic”; in data set [2] it was “Toxic”; in the data set with MDA-MB-231 [3], 3.25%; in the data set on MDA-MB-231 [4] it was “Not active; Poor Antitumor Effect Observed”; in data set [5] it was “Toxic”; in data set [7], “Toxic”. Also, the Activity entry is on record as “Toxic” in data set [8]; “Active; Exhibited Apoptosis Mostly In Late Stage” in the data set on MDA-MB-231 [9]; “Toxic” in [11]; “Toxic” in data set [12]; “Toxic” in data set [14]; 24.9% with MDA-MB-231 [16]. The Activity result was “Toxic” in data set [18] and 0.39% with MDA-MB-231 [19]. Besides, the figures for the IC50 in the data set with SK-HEP1 and in the data set on MDA-MB-231 [17] were 28 nM and 183 nM, respectively. In data set [6], the IC50 at 24 h was found to be 121 nM. The Drug uptake entry in [10] is “Active”. Besides, the result in the data set on MDA-MB-231 [13] was inactive. Also, the viability at 0.016 µM in the data set on MDA-MB-231 [15] turned out to be 71.5%.
